These results are taken from article PMC9926234, “Iterative computational design and crystallographic screening identifies potent inhibitors targeting the Nsp3 macrodomain of SARS-CoV-2” (Proceedings of the National Academy of Sciences of the …, 2023).

Where two headings read alike, the source gives them in different places.

Holding throughout (format): binding
Test [1] addresses T1, SARS-CoV-2 NSP3 Mac1 (Severe acute respiratory syndrome coronavirus 2, UniProt P0DTD1). The arrangement: contains a conserved macrodomain enzyme (Mac1). To be noted: for Spearman est (compound concentration vs apparent Tm): DSF dose responsiveness, 1 µM nsp3 mac1, adj p given. Put shortly: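 ΔTma values are thermal shifts relative to a co-located DMSO-only control, read with 5 µM Fluorescent Yellow dye. Each compound was tested in triplicate over seven concentrations (two-fold steps, top 1,000 or 100 μM). Spearman correlation of concentration versus ΔTma tested whether the shift was dose-responsive.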

In test [2] the target is T1, SARS-CoV-2 NSP3 Mac1. Put plainly: biochemical. To be noted: for Ki: Ki estimation from HTRF-derived IC50, Cheng-Prusoff, peptide 400nM, Kd 2.68µM.
In test [3] the target is T1, SARS-CoV-2 NSP3 Mac1. The following applies: for Refined occupancy: ligand occupancy after refinement (phenix.refine).
Where [4] appears, read: HTRF ADPr-peptide displacement from SARS-CoV-2 Mac1, read-out: IC50.
Where [5] appears, read: PanDDA 1-BDC value of the event, crystal soak, compound concentration 100 mM, per dataset.
[6] abbreviates: PanDDA event map, 1 minus background density correction, crystal soaking of Mac1.
[7] abbreviates: crystal soak, compound concentration 100 mM, per dataset.
Where [8] appears, read: ligand modeled from this dataset, compound concentration 100 mM, Echo dispense volume 40 or 80 nl.
The mark [9] stands for this setting: true hit = binding in crystallographic soaking or the HTRF-based binding assay.
Where [10] appears, read: maximal thermal upshift vs DMSO control.
The mark [11] stands for this setting: HTRF, several values in a cell are separate determinations, read-out: IC50.
[12] abbreviates: overall hit flag: binding in crystallographic soaking or the HTRF-based binding assay.
Setting [13] is: ligand modeled in the crystal structure, crystal soak, compound concentration 100 mM, per dataset.

Regarding `O=C(NC1c2cccc(O)c2CC1C(=O)O)c1ccc(Nn2ccnc2)cc1` (centres unmarked) [Z8539_0011], the “Spearman est (compound concentration vs apparent Tm)” value in test [1] is listed as 0.18. Moreover, the “DSF max dTma” value in test [1] (maximal thermal upshift) is listed as 1.23 ˚C. In addition, the IC50 in test [2] (setting [4]) is 19 µM. Further, in test [2] (read-out: Ki***), the Ki was 16.5 µM. For the same compound, the 1-BDC was determined as 0.25 in test [3] (setting [5]) and 0.35 in test [3] (setting [6]). In test [3] (setting [7]), the “PanDDA hit?” value is “TRUE”. Moreover, the “Modeled?” value in test [3] (setting [8]) is “TRUE”. For the same compound, in test [3] (crystal soaking of Mac1), the Refined occupancy is 70. Besides, the “HIT*” value in test [3] (setting [9]) was “Y”.
`CCc1c[nH]c2ncnc(N3CCC[C@H](C(N)=O)C3)c12` [Z3271]: the “Spearman est (compound concentration vs apparent Tm)” value in test [1] turned out to be 0.97. In test [1] (setting [10]), the “DSF max dTma” value was 1.77 °C. For the same compound, the concentration for half-maximal inhibition (IC50) in test [2] (setting [4]) and in test [2] (setting [11]) was 204 µM throughout. Besides, in test [2] (read-out: Ki***), the Ki is 177 µM. Also, the “HIT*” value in test [3] (setting [12]) was “Y”. Further, the “binding to Mac1 in crystal soaking, result in words” value in test [3] (soaks at 10 to 20 mM) is “not confirmed by X-ray crystallography”.
As for `NC(=O)Nc1ccc(C(=O)NC2c3cccc(O)c3CC2C(=O)O)cc1` (centres unmarked) [Z8539_0041], the “Spearman est (compound concentration vs apparent Tm)” value in test [1] is recorded as 0.6. For the same compound, the “DSF max dTma” value in test [1] (maximal thermal upshift) was 6 ˚C. In addition, in test [2], the “binding to Mac1 in the HTRF assay, result in words” value is recorded as “did not substantially change binding affinity”. In addition, the IC50 in test [2] (HTRF, read-out: IC50) is 1.3 µM. Also, the inhibitory constant (Ki) in test [2] (read-out: Ki***) is 1.1 µM. Further, the 1-BDC in test [3] (setting [5]) and in test [3] (setting [6]) was 0.24 in each case. Moreover, the “PanDDA hit?” value in test [3] (setting [7]) is given as “TRUE”. In addition, in test [3] (setting [13]), the “Modeled?” value is given as “TRUE”. This compound also had a Refined occupancy in test [3] (crystal soaking of Mac1) of 48. Further, the “HIT*” value in test [3] (setting [9]) is “Y”.
Take `O=C(CSc1nnn[nH]1)c1c[nH]c2ncc(Br)cc12` [R1104]: in test [1], the “Spearman est (compound concentration vs apparent Tm)” value was 0.54. The “DSF max dTma” value in test [1] (maximal thermal upshift) was 1.16 ˚C. Also, the IC50 in test [2] (HTRF, read-out: IC50) came out at 55.3 µM. The Ki in test [2] (read-out: Ki***) was 48.1 µM. In addition, the 1-BDC in test [3] (PanDDA event map, 1-BDC of the hit dataset, crystal soak, compound concentration 100 mM) is 0.3; in test [3] (setting [6]), 0.27. Besides, in test [3] (crystal soaking of Mac1), the Refined occupancy is recorded as 54. Further, the “HIT*” value in test [3] (setting [9]) is listed as “Y”.
On to `CNC(=O)Nc1ccc(C(=O)NC2c3ccccc3CC2C(=O)O)cc1` (centres unmarked) [Z8515], for which the “Spearman est (compound concentration vs apparent Tm)” value in test [1] came out at 0.98. The “DSF max dTma” value in test [1] (setting [10]) worked out at 3.71 °C. In addition, the IC50 in test [2] (setting [4]) is 7.9 µM; in test [2] (setting [11]), 10.3 µM. Besides, the Ki in test [2] (read-out: Ki***) is 9 µM. Further, the 1-BDC in test [3] (setting [5]) and in test [3] (setting [6]) was 0.09 each time. Moreover, the “PanDDA hit?” value in test [3] (setting [7]) was “TRUE”. Further, the “Modeled?” value in test [3] (setting [13]) is given as “TRUE”. The compound further displayed a Refined occupancy in test [3] (crystal soaking of Mac1) of 18. In test [3] (setting [12]), the “HIT*” value was “Y”.
On to `CC(C)NC(=O)Nc1ccc(C(=O)NC2c3cccc(O)c3CC2C(=O)O)cc1` (centres unmarked) [Z8539_0046], for which the “Spearman est (compound concentration vs apparent Tm)” value in test [1] is on record as 0.49. Besides, in test [1] (maximal thermal upshift), the “DSF max dTma” value is recorded as 6.41 ˚C. Further, in test [2], the “binding to Mac1 in the HTRF assay, result in words” value is on record as “did not substantially change binding affinity”. For the same compound, the IC50 in test [2] (HTRF, read-out: IC50) was determined as 0.8 µM. Further, the Ki in test [2] (read-out: Ki***) was 0.7 µM. Besides, the results for the 1-BDC in test [3] (setting [5]) and in test [3] (setting [6]) were 0.23 and 0.21, respectively. The “PanDDA hit?” value in test [3] (setting [7]) was “TRUE”. Also, in test [3] (setting [8]), the “Modeled?” value was “TRUE”. Further, the Refined occupancy in test [3] (crystal soaking of Mac1) came to 42. Also, the “HIT*” value in test [3] (setting [9]) is recorded as “Y”.
As for `O=C(Nc1ccccc1)Nc1ccc(C(=O)NC2c3cccc(O)c3CC2C(=O)O)cc1` (centres unmarked) [Z8539_0023], the thermal upshift in test [1] (DSF) worked out at 9 °C. For the same compound, the “Spearman est (compound concentration vs apparent Tm)” value in test [1] amounted to 0.81. Moreover, the “DSF max dTma” value in test [1] (maximal thermal upshift) was 9.9 ˚C. The compound further gave an IC50 in test [2] (IC50, HTRF ADPr-peptide displacement from SARS-CoV-2 Mac1) of 0.5 µM. The Ki in test [2] (Ki***) was 0.4 µM. The 1-BDC in test [3] (setting [5]) and in test [3] (setting [6]) was 0.17 each time. Also, the “PanDDA hit?” value in test [3] (setting [7]) is “TRUE”. In addition, the “Modeled?” value in test [3] (setting [13]) is on record as “TRUE”. In addition, the Refined occupancy in test [3] (crystal soaking of Mac1) worked out at 34. Besides, in test [3] (setting [9]), the “HIT*” value is “Y”.
For `CCc1c[nH]c2ncnc(N3CCCC(Cc4nc(C)no4)C3)c12` (centres unmarked) [Z5531], the “Spearman est (compound concentration vs apparent Tm)” value in test [1] worked out at 0.68. In test [1] (setting [10]), the “DSF max dTma” value amounted to 0.6 °C. In addition, the IC50 in test [2] (setting [4]) and in test [2] (setting [11]) was 148 µM in each case. Further, the Ki in test [2] (read-out: Ki***) was 129 µM. Also, the 1-BDC in test [3] (PanDDA 1-BDC (background density correction) of the event, crystal soak 100 mM, PanDDA run dmso_34) is given as 0.2; in test [3] (setting [6]), 0.2. In addition, in test [3] (crystal soak, compound concentration 100 mM, PanDDA run dmso_34, series docking_lead-like_1), the “PanDDA hit?” value is “TRUE”. In addition, the “Modeled?” value in test [3] (ligand modeled in the crystal structure, crystal soak 100 mM, PanDDA run dmso_34) is reported as “TRUE”. Further, the Refined occupancy in test [3] (crystal soaking of Mac1) was determined as 40. Also, the “HIT*” value in test [3] (setting [12]) was “Y”.
Turning to `O=C(Nc1ccc(C(=O)NC2c3cccc(O)c3CC2C(=O)O)c2scnc12)NC1CC1` (centres unmarked) [Z8539_0065], the half-inhibitory concentration (IC50) worked out at 3.3 µM in test [2] (setting [4]) and 4.8 µM in test [2] (HTRF, read-out: IC50). In addition, in test [2] (read-out: Ki***), the inhibitory constant (Ki) is 4.2 µM. In test [3] (PanDDA event map 1-BDC, crystal soak, Compound_concentration 100 mM, PanDDA run dmso_34 or nohits_35 per dataset), this compound gave a 1-BDC of 0.09. In test [3] (setting [6]), the “1-BDC (PanDDA)” value was 0.09. Also, the “PanDDA hit?” value in test [3] (crystal soak, Compound_concentration 100 mM, Echo dispense 40 nl, PanDDA run dmso_34 or nohits_35 per dataset) was “TRUE”. Further, the “Modeled?” value in test [3] (ligand modeled in this dataset, crystal soak, Compound_concentration 100 mM) was “TRUE”. Besides, in test [3] (crystal soaking of Mac1), the Refined occupancy worked out at 18. Also, the “HIT*” value in test [3] (setting [9]) is given as “Y”.

As usually defined, the IC50 is the concentration at which inhibition is half-maximal. What is called Ki is the equilibrium dissociation constant of an inhibitor or competing ligand from its target.
